Assay results taken from ChEMBL document CHEMBL5608246, “Membrane-Targeting Amphiphilic Honokiol Derivatives Containing an Oxazole Moiety as Potential Antibacterials against Methicillin-Resistant Staphylococcus aureus” (J Med Chem, 2024).
≈ marks a conversion by molar mass, not a printed value.

Assays:
Staphylococcus aureus [1] = experiment: Antibacterial activity against Staphylococcus aureus ATCC 29213 incubated for 16 to 18 hrs by broth dilution method; format: functional; conditions: time 16-18 hrs
Staphylococcus aureus [2] = experiment: Antibacterial activity against methicillin resistant Staphylococcus aureus N315 incubated for 16 to 18 hrs by broth dilution method; format: functional; conditions: time 16-18 hrs
Staphylococcus aureus [3] = experiment: Antibacterial activity against methicillin resistant Staphylococcus aureus M11 incubated for 16 to 18 hrs by broth dilution method; format: functional; conditions: time 16-18 hrs
Staphylococcus aureus [4] = experiment: Antibacterial activity against methicillin resistant Staphylococcus aureus M12 incubated for 16 to 18 hrs by broth dilution method; format: functional; conditions: time 16-18 hrs
Staphylococcus aureus [5] = experiment: Antibacterial activity against methicillin resistant Staphylococcus aureus M13 incubated for 16 to 18 hrs by broth dilution method; format: functional; conditions: time 16-18 hrs
Staphylococcus aureus [6] = experiment: Antibacterial activity against methicillin resistant Staphylococcus aureus M14 incubated for 16 to 18 hrs by broth dilution method; format: functional; conditions: time 16-18 hrs
Staphylococcus aureus [7] = experiment: Antibacterial activity against methicillin resistant Staphylococcus aureus M16 incubated for 16 to 18 hrs by broth dilution method; format: functional; conditions: time 16-18 hrs
Staphylococcus aureus [8] = experiment: Antibacterial activity against methicillin resistant Staphylococcus aureus M17 incubated for 16 to 18 hrs by broth dilution method; format: functional; conditions: time 16-18 hrs
Staphylococcus aureus [9] = experiment: Antibacterial activity against methicillin resistant Staphylococcus aureus M20 incubated for 16 to 18 hrs by broth dilution method; format: functional; conditions: time 16-18 hrs
Staphylococcus aureus [10] = experiment: Antibacterial activity against methicillin resistant Staphylococcus aureus M21 incubated for 16 to 18 hrs by broth dilution method; format: functional; conditions: time 16-18 hrs
Staphylococcus aureus [11] = experiment: Antibacterial activity against methicillin resistant Staphylococcus aureus M22 incubated for 16 to 18 hrs by broth dilution method; format: functional; conditions: time 16-18 hrs
Staphylococcus aureus [12] = experiment: Antibacterial activity against methicillin resistant Staphylococcus aureus M23 incubated for 16 to 18 hrs by broth dilution method; format: functional; conditions: time 16-18 hrs
Escherichia coli = experiment: Antibacterial activity against Escherichia coli ATCC 25922 incubated for 16 to 18 hrs by broth dilution method; format: functional; conditions: time 16-18 hrs
[13] = Hemolytic activity in sheep RBC incubated for 1 hr; format: toxicity, cell-based, Ovis aries, Erythrocyte; conditions: sheep red blood cells (erythrocytes)
[14] = Selectivity index, ratio of HC50 for sheep RBC to MIC for Staphylococcus aureus ATCC 29213; format: toxicity; conditions: sheep red blood cells, read-out: Selectivity Index

Row | SMILES | MIC (Staphylococcus aureus [1]) | MIC (Staphylococcus aureus [2]) | MIC (Staphylococcus aureus [3]) | MIC (Staphylococcus aureus [4]) | MIC (Staphylococcus aureus [5]) | MIC (Staphylococcus aureus [6]) | MIC (Staphylococcus aureus [7]) | MIC (Staphylococcus aureus [8]) | MIC (Staphylococcus aureus [9]) | MIC (Staphylococcus aureus [10]) | MIC (Staphylococcus aureus [11]) | MIC (Staphylococcus aureus [12]) | MIC (Escherichia coli) | HC50 at 1 h [13] | selectivity ratio [14]
1 | C=CCc1cc(-c2ccc(OCCC[N+](C)(C)CC(=O)NCCCC)c(CC=C)c2)c2oc(-c3ccc(Cl)c(Cl)c3)nc2c1.[Br-] | 128 µg/mL | 128 µg/mL | 64 µg/mL | 32 µg/mL | 16 µg/mL | 32 µg/mL | 32 µg/mL | 128 µg/mL | 32 µg/mL | 32 µg/mL | 64 µg/mL | 64 µg/mL | > 128 µg/mL | 87.6 µg/mL | 0.7
2 | C=CCc1cc(-c2ccc(OCCC[N+](C)(C)CC(=O)NCCCC)c(CC=C)c2)c2oc(-c3ccc(Cl)cc3F)nc2c1.[Br-] | > 128 µg/mL | > 128 µg/mL | > 128 µg/mL | 128 µg/mL | > 128 µg/mL | 64 µg/mL | 128 µg/mL | 128 µg/mL | 128 µg/mL | 128 µg/mL | 128 µg/mL | 128 µg/mL | 128 µg/mL | > 640 µg/mL | –
3 | C=CCc1cc(-c2ccc(OCCC[N+](C)(C)CC(=O)NCCCC)c(CC=C)c2)c2oc(-c3ccc(C(F)(F)F)cc3)nc2c1.[Br-] | 128 µg/mL | 128 µg/mL | 8 µg/mL | 16 µg/mL | 8 µg/mL | 16 µg/mL | 8 µg/mL | 32 µg/mL | 8 µg/mL | 8 µg/mL | 32 µg/mL | 8 µg/mL | 128 µg/mL | 59.5 µg/mL | 0.5
4 | C=CCc1cc(-c2ccc(OCCC[N+](C)(C)CC(=O)NCCCC)c(CC=C)c2)c2oc(-c3cccc(Br)c3)nc2c1.[Br-] | 32 µg/mL | 64 µg/mL | 8 µg/mL | 8 µg/mL | 8 µg/mL | 8 µg/mL | 8 µg/mL | 8 µg/mL | 8 µg/mL | 8 µg/mL | 8 µg/mL | 8 µg/mL | > 128 µg/mL | > 320 µg/mL | > 10
5 | C=CCc1cc(-c2ccc(OCCC[N+](C)(C)CC(=O)NCCCC)c(CC=C)c2)c2oc(-c3ccc(F)c(Br)c3)nc2c1.[Br-] | 128 µg/mL | 128 µg/mL | 8 µg/mL | 16 µg/mL | 8 µg/mL | 8 µg/mL | 16 µg/mL | 16 µg/mL | 8 µg/mL | 8 µg/mL | 32 µg/mL | 16 µg/mL | 128 µg/mL | 48.5 µg/mL | 0.4
6 | C=CCc1cc(-c2ccc(OCCC[N+](C)(C)CC(=O)NCCCC)c(CC=C)c2)c2oc(-c3ccc(Cl)cc3Br)nc2c1.[Br-] | > 128 µg/mL | > 128 µg/mL | 128 µg/mL | > 128 µg/mL | > 128 µg/mL | 128 µg/mL | 128 µg/mL | > 128 µg/mL | > 128 µg/mL | > 128 µg/mL | 128 µg/mL | > 128 µg/mL | > 128 µg/mL | > 320 µg/mL | –
7 | C=CCc1cc(-c2ccc(OCCC[N+](C)(C)CC(=O)NCCCC)c(CC=C)c2)c2oc(-c3ccc(Cl)cc3Cl)nc2c1.[Br-] | 32 µg/mL | 32 µg/mL | 64 µg/mL | 16 µg/mL | 16 µg/mL | 8 µg/mL | 8 µg/mL | 8 µg/mL | 8 µg/mL | 8 µg/mL | 16 µg/mL | 8 µg/mL | > 128 µg/mL | 85.9 µg/mL | 2.7
8 | C=CCc1cc(-c2ccc(OCCC[N+](C)(C)CC(=O)NCCCC)c(CC=C)c2)c2oc(-c3ccccc3Cl)nc2c1.[Br-] | 16 µg/mL | 64 µg/mL | 128 µg/mL | 64 µg/mL | 32 µg/mL | 64 µg/mL | 32 µg/mL | 128 µg/mL | 64 µg/mL | 128 µg/mL | 32 µg/mL | 32 µg/mL | 128 µg/mL | > 640 µg/mL | > 40
9 | C[C@@H](O)[C@H]1C(=O)N2C(C(=O)O)=C(S[C@@H]3CN[C@H](C(=O)N(C)C)C3)[C@H](C)[C@H]12 [MEROPENEM] | – | – | – | – | – | – | – | – | – | – | – | – | 0.063 µg/mL (≈ 0.164 µM) | – | –
